# Source: patent publication US20050245527A1, “Nitrogen containing heterocyclic compounds and medicines containing the same” (priority 2002, published 2005)
# Tested on: sodium channels
# Type: cell-based
# Conditions: read-out: IC50 (μM), sodium channel-inhibiting activity; rat fetal cultured hippocampal neurons, SBFI fluorescence in the presence of 4-aminopyridine, 5 minutes after addition, 1 μM tetrodotoxin = 100%
row,Compound,IC50
1,"O=C(Cc1cc(F)ccc1F)C1CCN(Cc2ncc[nH]c2=O)CC1 [Example 194, 3-[4-[2-(2,5-Difluorophenyl)acetyl]piperidino]methyl-1H-pyrazin-2-one]",6.6 µM
2,"O=C(Cc1ccccc1F)C1CCN(Cc2nc3ccccc3[nH]c2=O)CC1 [Example 206, 3-[4-[2-(2-Fluorophenyl)acetyl]piperidino]methyl-1H-quinoxalin-2-one]",5.2 µM
3,"O=c1[nH]ccnc1CN1CCC(/C=C/c2sccc2F)CC1 [Example 173, (E)-3-[4-[2-(3-Fluoro-2-thienyl)vinyl]piperidino]methyl-1H-pyrazin-2-one]",4.3 µM
4,"O=c1cncc(CCN2CCC(C#Cc3ccccc3F)CC2)[nH]1 [Example 244, 6-[2-[4-[(2-Fluorophenyl)ethynyl]piperidino]ethyl]-1H-pyrazin-2-one]",3.1 µM
5,"COc1ccccc1OCC1(C)CCN(Cc2ncc[nH]c2=O)CC1 [Example 356, 3-[4-(2-Methoxyphenoxymethyl)-4-methylpiperidino]methyl-1H-pyrazin-2-one]",2.9 µM
6,"Cc1ccccc1C#CC1(O)CCN(Cc2ncc[nH]c2=O)CC1 [Example 218, 3-[4-(2-Methylphenyl)ethynyl-4-hydroxypiperidino]methyl-1H-pyrazin-2-one]",3.6 µM
7,"O=c1cncc(CCN2CCC(O)(C#Cc3ccccc3F)CC2)[nH]1 [Example 120, 6-[2-[4-Hydroxy-4-[(2-fluorophenyl)ethynyl]piperidino]ethyl]-1H-pyrazin-2-one]",8.5 µM
8,"O=c1[nH]ccnc1CN1CCC(O)(C#Cc2ccccc2F)CC1 [Example 217, 3-[4-(2-Fluorophenyl)ethynyl-4-hydroxypiperidino]methyl-1H-pyrazin-2-one]",1.8 µM
9,"C[C@H]1C[C@H](C(=O)Cc2ccccc2F)CCN1Cc1ncc[nH]c1=O (relative stereo) [Example 414, trans-3-[4-[2-(2-Fluorophenyl)acetyl]-2-methylpiperidino]methyl-1H-pyrazin-2-one]",7.9 µM
10,"CC(C(=O)C1CCN(Cc2ncc[nH]c2=O)CC1)c1ccccc1F (centres unmarked) [Example 349, 3-[4-[2-(2-Fluorophenyl)propionyl]piperidino]methyl-1H-pyrazin-2-one]",8.9 µM
11,"CCOc1ccccc1OCC1CCN(Cc2ncc[nH]c2=O)CC1 [Example 165, 3-[4-(2-Ethoxyphenoxymethyl)piperidino]methyl-1H-pyrazin-2-one]",8.4 µM
12,"O=c1[nH]ccnc1CN1CCC(CSc2ccccc2F)CC1 [Example 336, 3-[4-[(2-Fluorophenylthio)methyl]piperidino]methyl-1H-pyrazin-2-one]",4.7 µM
13,"O=c1cncc(CCN2CCC(O)(COc3ccccc3F)CC2)[nH]1 [Example 118, 6-[2-[4-Hydroxy-4-(2-fluorophenoxymethyl)piperidino]ethyl]-1H-pyrazin-2-one]",3.1 µM
14,"O=c1[nH]ccnc1CN1CCC(C(Cc2ccccc2F)=NO)CC1 [Example 202, 3-[4-[1-Hydroxyimino-2-(2-fluorophenyl)ethyl]piperidino]methyl-1H-pyrazin-2-one]",4.9 µM
15,"O=c1[nH]ccnc1CN1CCC2(CC1)CC(Oc1ccccc1F)C2 [Example 226, 3-[2-(2-Fluorophenoxy)-7-azaspiro[3.5]non-7-yl]methyl-1H-pyrazin-2-one]",4.5 µM
16,"O=C(Cc1cccc(F)c1)C1CCN(Cc2ncc[nH]c2=O)CC1 [Example 191, 3-[4-[2-(3-Fluorophenyl)acetyl]piperidino]methyl-1H-pyrazin-2-one]",7.1 µM
17,"O=C(Cc1ccccc1)C1CCN(Cc2ncc[nH]c2=O)CC1 [Example 196, 3-[4-(2-Phenylacetyl)piperidino]methyl-1H-pyrazin-2-one]",6.2 µM
18,"O=C(Cc1ccccc1C(F)(F)F)C1(F)CCN(Cc2ncc[nH]c2=O)CC1 [Example 372, 3-[4-Fluoro-4-[2-[2-(trifluoromethyl)phenyl]acetyl]piperidino]methyl-1H-pyrazin-2-one]",3.3 µM
19,"O=c1[nH]ccnc1CN1CCC(COc2ccc(F)cc2)CC1 [Example 199, 3-[4-(4-Fluorophenoxymethyl)piperidino]methyl-1H-pyrazin-2-one]",6.2 µM
20,"O=c1[nH]ccnc1CN1CCCCC1CCOc1ccccc1F (centres unmarked) [Example 209, 3-[2-[2-(2-Fluorophenoxy)ethyl]piperidino]methyl-1H-pyrazin-2-one]",2.1 µM
21,"CON=C(Cc1ccccc1F)C1CCN(Cc2ncc[nH]c2=O)CC1 [Example 203, 3-[4-[2-(2-Fluorophenyl)-1-(methoxyimino)ethyl]piperidino]methyl-1H-pyrazin-2-one]",2.3 µM
22,"CCOC(=O)C1(CCc2ccccc2)CCN(Cc2ccc[nH]c2=O)CC1 [Example 255, 3-[4-(Ethoxycarbonyl)-4-(2-phenylethyl)piperidino]methyl-1H-pyridin-2-one]",3.1 µM
23,"COc1ccccc1CCC1CCCN(Cc2ncc[nH]c2=O)C1 (centres unmarked) [Example 155, 3-[3-[2-(2-Methoxyphenyl)ethyl]piperidino]methyl-1H-pyrazin-2-one]",3.5 µM
24,"O=C1CN(Cc2ncc[nH]c2=O)CCC1CCc1ccccc1F (centres unmarked) [Example 371, 3-[4-[2-(2-Fluorophenyl)ethyl]-3-oxopiperidino]methyl-1H-pyrazin-2-one]",9 µM

row,Compound,IC50
1,"O=C(Cc1cccc2ccccc12)C1CCN(Cc2ncc[nH]c2=O)CC1 [Example 353, 3-[4-[2-(1-Naphthyl)acetyl]piperidino]methyl-1H-pyrazin-2-one]",1.7 µM
2,"CC1(COc2ccccc2Cl)CCN(Cc2ncc[nH]c2=O)CC1 [Example 354, 3-[4-(2-Chlorophenoxymethyl)-4-methylpiperidino]methyl-1H-pyrazin-2-one]",2.8 µM
3,"O=C(Cc1cccc2c1OCC2)C1CCN(Cc2ncc[nH]c2=O)CC1 [Example 410, 3-[4-[2-(2,3-Dihydrobenzofuran-7-yl)acetyl]piperidino]methyl-1H-pyrazin-2-one]",5.7 µM
4,"O=c1[nH]ccnc1CN1CCC(O)(COc2ccccc2F)CC1 [Example 211, 3-[4-Hydroxy-4-(2-fluorophenoxymethyl)piperidino]methyl-1H-pyrazin-2-one]",8.2 µM
5,"O=c1cncc(CCN2CCC3(CC2)CC(Oc2ccccc2F)C3)[nH]1 [Example 119, 6-[2-[2-(2-Fluorophenoxy)-7-azaspiro[3.5]non-7-yl]ethyl]-1H-pyrazin-2-one]",8.4 µM
6,"N#Cc1ccccc1OCC1CCN(Cc2ncc[nH]c2=O)CC1 [Example 166, 3-[4-(2-Cyanophenoxymethyl)piperidino]methyl-1H-pyrazin-2-one]",8.7 µM
7,"O=c1[nH]ccnc1CN1CCOC(CCc2ccccc2F)C1 (centres unmarked) [Example 340, 3-[3-[2-(2-Fluorophenyl)ethyl]morpholin-1-yl]methyl-1H-pyrazin-2-one]",7.1 µM
8,"O=c1[nH]ccnc1CN1CCC(C[S+]([O-])c2ccccc2F)CC1 (centres unmarked) [Example 337, 3-[4-[(2-Fluorophenylsulfinyl)methyl]piperidino]methyl-1H-pyrazin-2-one]",6.5 µM
9,"Cc1ccccc1OCC1(C#N)CCN(Cc2ncc[nH]c2=O)CC1 [Example 121, 1-(3-Oxo-3,4-dihydro-2-pyrazinylmethyl)-4-(2-methylphenoxymethyl)piperidine-4-carbonitrile]",5.7 µM
10,"O=c1[nH]ccnc1CN1CCC(SCc2ccccc2F)CC1 [Example 411, 3-[4-(2-Fluorobenzylthio)piperidino]methyl-1H-pyrazin-2-one]",4.8 µM
11,"O=c1[nH]ccnc1CN1CCC(CCOc2ccccc2F)CC1 [Example 159, 3-[4-[2-(2-Fluorophenoxy)ethyl]piperidino]methyl-1H-pyrazin-2-one]",9.4 µM
12,"O=c1[nH]ccnc1CN1CCC([S+]([O-])Cc2ccccc2F)CC1 (centres unmarked) [Example 398, 3-[4-(2-Fluorobenzylsulfinyl)piperidino]methyl-1H-pyrazin-2-one]",3.4 µM
13,"O=C(Cc1ccccc1F)C1CCN(Cc2ccn[nH]c2=O)CC1 [Example 364, 4-[4-[2-(2-Fluorophenyl)acetyl]piperidino]methyl-2H-pyridazin-3-one]",9.3 µM
14,"O=c1cncc(CCN2CCC(COc3ccccc3)CC2)[nH]1 [Example 245, 6-[2-[4-(Phenoxymethyl)piperidino]ethyl]-1H-pyrazin-2-one]",4.4 µM
15,"COc1cccc(OCC2CCN(Cc3ncc[nH]c3=O)CC2)c1 [Example 161, 3-[4-(3-Methoxyphenoxymethyl)piperidino]methyl-1H-pyrazin-2-one]",3.5 µM
16,"Cc1ccc(-c2ccccc2)n1CC1CCN(Cc2ncc[nH]c2=O)CC1 [Example 182, 3-[4-(2-Methyl-5-phenylpyrrol-1-yl)methyl-piperidino]methyl-1H-pyrazin-2-one]",7.8 µM
17,"O=C(Cc1ccccc1F)C1(F)CCN(Cc2ncc[nH]c2=O)CC1 [Example 370, 3-[4-Fluoro-4-[2-(2-fluorophenyl)acetyl]piperidino]methyl-1H-pyrazin-2-one]",9.6 µM
18,"O=c1[nH]ccnc1CN1CCCC(COc2ccccc2F)CC1 (centres unmarked) [Example 388, 3-[4-(2-Fluorophenoxymethyl)azepan-1-yl]methyl-1H-pyrazin-2-one]",4.7 µM
19,"COc1ccccc1OCC1CCN(CCc2cncc(=O)[nH]2)CC1 [Example 240, 6-[2-[4-(2-Methoxyphenoxymethyl)piperidino]ethyl]-1H-pyrazin-2-one]",6.4 µM
20,"N#CC1(COc2ccccc2F)CCN(Cc2ncc[nH]c2=O)CC1 [Example 221, 3-[4-Cyano-4-(2-fluorophenoxymethyl)piperidino]methyl-1H-pyrazin-2-one]",4.9 µM
21,"O=c1[nH]ccnc1CN1CCC(c2nc(-c3ccccc3)no2)CC1 [Example 215, 3-[4-(3-Phenyl-1,2,4-oxadiazol-5-yl)piperidino]methyl-1H-pyrazin-2-one]",4.1 µM
22,"Cn1c(CCN2CCC(COc3ccccc3F)CC2)cncc1=O [Example 249, 6-[2-[4-(2-Fluorophenoxymethyl)piperidino]ethyl]-1-methyl-1H-pyrazin-2-one]",3.2 µM
23,"O=c1[nH]ccnc1CN1CCOC(COc2ccccc2F)C1 (centres unmarked) [Example 342, 3-[3-(2-Fluorophenoxymethyl)morpholin-1-yl]methyl-1H-pyrazin-2-one]",3 µM
